Data published in US10273241B2 (President and Fellows of Harvard College, priority 2013, dated 2019).
Like-named read-outs stand apart in the source and are kept apart here.

Key:
[1] = tested on: MOLM-14; assay: Cell growth assay, MOLM-14 AML cell line; format: cell-based, human; conditions: Homo sapiens
Experimental: (§1) For all other cell lines, compounds were serially diluted in medium and dispensed in triplicate in 96-well plates (0.1% DMSO final for assay) followed by the addition of exponentially growing cells at densities ranging from 5,000 to 30,000 cells/well. Cells were also seeded into 2 additional control wells containing vehicle (0.1% DMSO). […] To determine the estimated cell number in each well, cells that were counted in the control well were diluted 3-fold for an 8-point dilution series, and transferred to 384-well plates in duplicate, 20 μL per well. Cells in all other wells were diluted 4-fold and transferred to 384-well plates in duplicate, 20 μL per well. 20 μL of CellTiter-Glo (Promega) was subsequently added to all wells and luminescence was detected using a SPECTRAmax M3. The control well dilution series was fit to a linear regression and used as a standard for calculating the estimated cell number for each well. For days 7 and 10, total estimated cell number represents the split-adjusted theoretical cell number.

[2] = tested on: MV4;11; assay: Cell growth assay, MV4;11 AML cell line; format: cell-based, human; conditions: Homo sapiens
Experimental: as §1

[3] = tested on: SET-2; assay: Cell growth assay, SET-2 cell line; format: cell-based; conditions: Homo sapiens, SET-2, 240 h; read-out: SET-2 GI50 day 10
Experimental: (§2) For all other cell lines, compounds were serially diluted in medium and dispensed in triplicate in 96-well plates (0.1% DMSO final for assay) followed by the addition of exponentially growing cells at densities ranging from 5,000 to 30,000 cells/well. Cells were also seeded into 2 additional control wells containing vehicle (0.1% DMSO). After 3 days, the number of viable cells in one of the control wells was counted by hemocytometer or MOXI Z (Orflo) and an equal volume of cells for all wells were split-back with fresh vehicle/compounds such that the resulting seeding density for the control well was 5,000-30,000 cells/well, matching the initial seeding density in that well. This procedure was repeated on day 7 and day 10. % growth was calculated as % growth=100×(total estimated cell number in well−day 0 starting cell number)/(total average vehicle estimated cell number−day 0 starting cell number). To determine the estimated cell number in each well, cells that were counted in the control well were diluted 3-fold for an 8-point dilution series, and transferred to 384-well plates in duplicate, 20 μL per well. Cells in all other wells were diluted 4-fold and transferred to 384-well plates in duplicate, 20 μL per well. 20 μL of CellTiter-Glo (Promega) was subsequently added to all wells and luminescence was detected using a SPECTRAmax M3. The control well dilution series was fit to a linear regression and used as a standard for calculating the estimated cell number for each well. For days 7 and 10, total estimated cell number represents the split-adjusted theoretical cell number.

[4] = tested on: K562; assay: Cell growth assay, K562 cell line; format: cell-based, human; conditions: Homo sapiens, K562, 240 h; day 10; lack of activity is taken as evidence of on-target selectivity
Experimental: as §2

[5] = Pharmacokinetic study of 14A in male CD-1 mice; format: in vivo; conditions: CD-1, mouse, blood
Experimental: For pharmacokinetic studies with (14A), (14A) was formulated in 20% hydroxypropyl-beta-cyclodextrin (HPCD) and male CD-1 mice were given a single dose of 14A at 3 mg/kg i.p. and intravenous (i.v.) and 10 mg/kg oral (p.o.). Prior to dosing, mice were fasted overnight until 4 hours post-dosing. Blood samples were collected at the indicated timepoints and analyzed by HPLC/MS/MS to evaluate the concentration of (14A).

[6] = MOLM-14, 240 h, day 10, cells passaged, fresh compound added on days 3 and 7, read-out: MOL M14 G150 day 10
[7] = MV4-11, 240 h, day 10, cells passaged, fresh compound added on days 3 and 7, read-out: MV 4;11 GI50 day 10
[8] = MOLM-14, day 7, fresh compound added on day 3, read-out: MOL M14 GI50 day 7
[9] = MV4-11, day 7, fresh compound added on day 3, read-out: MV4;11 GI50 day 7
[10] = MOLM-14, 168 h, day 7, printed as symbol, read-out: MOL M14 GI50 day 7
[11] = MV4-11, 168 h, day 7, printed as symbol, read-out: MV4;11 GI50 day 7

Work on C[C@]12CC=C3C=C4CC[C@@H](N)CC45CC[C@]3(O5)[C@@H]1CC[C@@H]2c1ccc2ccncc2c1 [62A, α-primaryamine] yielded a GI50 [1, 6] of 5 nM, a GI50 [2, 7] of 0.4 nM and a GI50 [3] of 0.45 nM.

With C[C@]12CC=C3C=C4CC[C@H](N5CCOCC5)C[C@]45CCC3(O5)[C@@H]1CC[C@@H]2c1ccc2ccncc2c1 [15B, β-morpholine] the GI50 [1, 6] was 12.5 nM, the GI50 [4] was over 1000 nM and the GI50 [2, 7] was 12 nM.

C[C@]12CC=C3C=C4CC[C@H](N5CCC5)C[C@]45CCC3(O5)[C@@H]1CC[C@@H]2c1ccc2ccncc2c1 [18B, β-azetidine] gave a GI50 [1, 6] of 13 nM, a GI50 [1, 8] of 25 nM and a GI50 [4] of over 1000 nM. For the same compound, the GI50 [2, 7] was 13 nM and the GI50 [2, 9] was 20 nM.

With C[C@]12CC=C3C=C4CC[C@H](NS(C)(=O)=O)C[C@]45CCC3(O5)[C@@H]1CC[C@@H]2c1ccc2ccncc2c1 [73B, β-methylsulfonamide] the GI50 [1, 6] was 200 nM, the GI50 [4] was over 1000 nM and the GI50 [2, 7] was 150 nM.

In the case of CN(C)[C@H]1CCC2=CC3=CC[C@]4(C)C(c5ccc6ccncc6c5)=CC[C@H]4[C@@]34CC[C@]2(C1)O4 [23B, β-dimethylamine 17,18-unsaturated isoquinoline], the GI50 [1, 6] is reported as 55 nM, the GI50 [4] is reported as over 1000 nM and the GI50 [2, 7] is reported as 35 nM.

Compound C[C@]12CC=C3C=C4CC[C@H](N5CCCC5)C[C@]45CC[C@]3(O5)[C@@H]1CC[C@@H]2c1ccc2ccncc2c1 [19B, β-pyrrolidine] has a GI50 [1, 6] of 10 nM, a GI50 [1, 8] of 16 nM and a GI50 [2, 7] of 8 nM. For the same compound, the GI50 [2, 9] was 15 nM.

Work on CN1CCN([C@H]2CCC3=CC4=CC[C@]5(C)[C@@H](c6ccc7ccncc7c6)CC[C@H]5C45CC[C@]3(C2)O5)CC1 [16B, β-N-methylpiperazine] yielded a GI50 [1, 6] of 9 nM, a GI50 [1, 8] of 17 nM and a GI50 [4] of over 1000 nM. The GI50 [2, 7] was 8 nM and the GI50 [2, 9] was 15 nM.

With CN(CC1(C)COC1)[C@H]1CCC2=CC3=CC[C@]4(C)[C@@H](c5ccc6ccncc6c5)CC[C@H]4[C@@]34CCC2(C1)O4 [42B, β-N-methyl-1-(3-methyl-3-oxetanyl)methanamine] the GI50 [1, 6] was 20 nM and the GI50 [2, 7] was 7.5 nM.

CC1(C)NC(=O)N([C@@H]2CCC3=CC4=CC[C@]5(C)[C@@H](c6ccc7ccncc7c6)CC[C@H]5C45CC[C@]3(C2)O5)C1=O [74A, α-dimethylhydantoin] gave a GI50 [1, 6] of 800 nM, a GI50 [4] of over 1000 nM and a GI50 [2, 7] of 400 nM.

C[C@]12CC=C3C=C4CC[C@@H]([N+](C)(C)[O-])CC45CC[C@]3(O5)[C@@H]1CC[C@@H]2c1ccc2ccncc2c1 [14ANO, 14A-N-Oxide] gave a GI50 [1, 6] of 14 nM and a GI50 [2, 7] of 1.75 nM.

Work on CCN(C(C)C)[C@H]1CCC2=CC3=CC[C@]4(C)[C@@H](c5ccc6ccncc6c5)CC[C@H]4[C@@]34CC[C@]2(C1)O4 [34B] yielded an IC50 ([1]; MOLM-14, 240 h, read-out: MOL M14 G150 day 10 (nM)) of 15 nM and a GI50 ([2]; MV4-11, 240 h, read-out: MV 4;11 GI50 day 10 (nM)) of 8.5 nM.

Work on C[C@]12CC=C3C=C4CC[C@@H](NCCS(N)(=O)=O)C[C@]45CCC3(O5)[C@@H]1CC[C@@H]2c1ccc2ccncc2c1 [71A] yielded a GI50 [1, 6] of 20 nM and a GI50 [2, 7] of 2 nM.

C[C@]12CC=C3C=C4CC[C@@H](N5CCC5)CC45CC[C@]3(O5)[C@@H]1CC[C@@H]2c1ccc2ccncc2c1 [18A, α-azetidine] showed a GI50 [1, 6] of 3 nM and a GI50 [2, 7] of 1 nM.

CN(C)[C@@H]1CCC2=CC3=CC[C@]4(C)[C@@H](c5ccc6ccncc6c5)CC[C@H]4C34CC[C@]2(C1)O4 [14A, α-dimethylamine] gave a clearance ([5]; 3 mg/kg IV) of 29 mL/min/kg, a Cmax ([5]; 10 mg/kg PO in 20% HPCD, after 2 hours, read-out: Cmax after oral dosing) of 255 ng/mL and a half-life ([5]; 10 mg/kg PO in 20% HPCD, read-out: T1/2 after oral dosing (converted)) of about 5 h. The concentration at 24 h ([5]; 10 mg/kg PO, 24 h, read-out: oral C24 trough concentration) was 14.2 ng/mL, the bioavailability ([5]; ip, 3 mg/kg, 3 mg/kg IP, read-out: IP bioavailability) was 95% and the Vd ([5]; iv, 3 mg/kg, 3 mg/kg IV, read-out: Vss) was 11.7 L/kg. It also gave a bioavailability ([5]; oral, 10 mg/kg, 10 mg/kg PO vs 3 mg/kg IV, read-out: oral bioavailability) of 44%.

Work on CN(C)[C@H]1CCC2=CC3=CC[C@]4(C)[C@@H](NCc5cccnc5)CC[C@H]4C34CC[C@]2(C1)O4 [46B, β-dimethylamine aminomethylpyridine] yielded a GI50 [1, 10] of over 1000 nM and a GI50 [2, 11] of over 1000 nM.

CC1(O)CN([C@@H]2CCC3=CC4=CC[C@]5(C)[C@@H](c6ccc7ccncc7c6)CC[C@H]5C45CC[C@]3(C2)O5)C1 [69A, α-hydroxymethylazetidine] showed a GI50 [1, 6] of 30 nM and a GI50 [2, 7] of 9.5 nM.

CC(C)N(C)[C@H]1CCC2=CC3=CC[C@]4(C)[C@@H](c5ccc6ccncc6c5)CC[C@H]4[C@@]34CC[C@]2(C1)O4 [33B, β-isopropylmethylamine] showed a GI50 [1, 6] of 60 nM and a GI50 [2, 7] of 22 nM.

Compound C[C@]12CC=C3C=C4CC[C@H](N5CCC6(COC6)C5)C[C@]45CCC3(O5)[C@@H]1CCC2c1ccc2ccncc2c1 (stereo partly drawn) [38B, β-2-oxa-6-azaspiro[3.4]octane] has a GI50 [1, 6] of 10 nM and a GI50 [2, 7] of 10 nM.

CN(C)[C@H]1CCC2=CC3=CC[C@]4(C)C(C(=O)Nc5cccnc5)=CC[C@H]4[C@@]34CCC2(C1)O4 [49B, β-dimethylamine 17,18-unsaturated amidepyridine] gave a GI50 [1, 10] of over 1000 nM and a GI50 [2, 11] of over 1000 nM.

With CC(C)(C)N[C@@H]1CCC2=CC3=CC[C@]4(C)C(c5ccc6ccncc6c5)CC[C@H]4C34CC[C@]2(C1)O4 (stereo partly drawn) [43A, α-t-butylamine] the GI50 [1, 6] was 200 nM and the GI50 [2, 7] was 175 nM.

In the case of CC(C)(C)N[C@H]1CCC2=CC3=CC[C@]4(C)C(c5ccc6ccncc6c5)CC[C@H]4C34CC[C@]2(C1)O4 (stereo partly drawn) [43B, β-t-butylamine], the GI50 [1, 6] is reported as 150 nM and the GI50 [2, 7] is reported as 95 nM.

For CN(C)[C@H]1CCC2=CC3=CC[C@]4(C)C(c5ccc6[nH]ncc6c5)=CC[C@H]4C34CC[C@]2(C1)O4 [61B, β-dimethylamine 17,18-unsaturated 5-indazole], the GI50 [1, 10] was over 1000 nM and the GI50 [2, 11] was over 1000 nM.

With C[C@]12CC=C3C=C4CC[C@H](NCCS(N)(=O)=O)C[C@]45CCC3(O5)[C@@H]1CC[C@@H]2c1ccc2ccncc2c1 [71B] the GI50 [1, 6] was 50 nM and the GI50 [2, 7] was 18 nM.

Compound C[C@]12CC=C3C=C4CC[C@@H](NCC5(O)COC5)CC45CC[C@]3(O5)[C@@H]1CC[C@@H]2c1ccc2ccncc2c1 [72A, α-hydroxyaminomethyloxetane] has a GI50 [1, 6] of 4 nM and a GI50 [2, 7] of 8 nM.

C[C@]12CC=C3C=C4CC[C@H](N5C[C@H](O)C[C@H]5C(=O)O)C[C@]45CCC3(O5)[C@@H]1CCC2c1ccc2ccncc2c1 (stereo partly shown) [65B] showed a GI50 [1, 6] of 16 nM and a GI50 [2, 7] of 3 nM.

In the case of COCCN(CCOC)[C@H]1CCC2=CC3=CC[C@]4(C)C(c5ccc6ccncc6c5)CC[C@H]4[C@@]34CC[C@]2(C1)O4 (stereo partly drawn) [28B, β-bis-2-methoxyethylamine], the GI50 [1, 6] is reported as 15 nM and the GI50 [2, 7] is reported as 9.5 nM.

Compound C[C@]12CC=C3C=C4CC[C@@H](NS(C)(=O)=O)C[C@]45CCC3(O5)[C@@H]1CC[C@@H]2c1ccc2ccncc2c1 [73A, α-methylsulfonamide] has a GI50 [1, 6] of 200 nM, a GI50 [4] of over 1000 nM and a GI50 [2, 7] of 90 nM.

In the case of C[C@]12CC=C3C=C4CC[C@H](N5CC[C@@H](F)C5)C[C@]45CC[C@]3(O5)[C@@H]1CC[C@@H]2c1ccc2ccncc2c1 [35B, β-(R)-3-fluoropyrrolidine], the GI50 [1, 6] is reported as 160 nM and the GI50 [2, 7] is reported as 80 nM.

Work on [2H]C([2H])([2H])N([C@H]1CCC2=CC3=CC[C@]4(C)C(c5ccc6ccncc6c5)CC[C@H]4[C@@]34CC[C@]2(C1)O4)C([2H])([2H])[2H] (stereo partly drawn) [26B, β-deuterodimethylamine] yielded a GI50 [1, 6] of 6 nM and a GI50 [2, 7] of 4 nM.

Compound CC1(N[C@H]2CCC3=CC4=CC[C@]5(C)C(c6ccc7ccncc7c6)CC[C@H]5C45CC[C@]3(C2)O5)COC1 (stereo partly drawn) [41B, β-3-methyl-3-oxetanamine] has a GI50 [1, 6] of 16 nM and a GI50 [2, 7] of 8 nM.
